Earlier results, collected in paper PMC8650797 (The ocular surface, 2020).

Test system: herpes simplex virus DNA polymerase
Conditions: native peptide; ref [29] Digard et al.

Sequence: EETRRMLHRAFDTLA
- activity in blocking DNA synthesis in vitro: very poor activity
